The target of experiment [1] is T1, FLT3 (Homo sapiens, UniProt P36888).
T1 sequence (P36888 27-993): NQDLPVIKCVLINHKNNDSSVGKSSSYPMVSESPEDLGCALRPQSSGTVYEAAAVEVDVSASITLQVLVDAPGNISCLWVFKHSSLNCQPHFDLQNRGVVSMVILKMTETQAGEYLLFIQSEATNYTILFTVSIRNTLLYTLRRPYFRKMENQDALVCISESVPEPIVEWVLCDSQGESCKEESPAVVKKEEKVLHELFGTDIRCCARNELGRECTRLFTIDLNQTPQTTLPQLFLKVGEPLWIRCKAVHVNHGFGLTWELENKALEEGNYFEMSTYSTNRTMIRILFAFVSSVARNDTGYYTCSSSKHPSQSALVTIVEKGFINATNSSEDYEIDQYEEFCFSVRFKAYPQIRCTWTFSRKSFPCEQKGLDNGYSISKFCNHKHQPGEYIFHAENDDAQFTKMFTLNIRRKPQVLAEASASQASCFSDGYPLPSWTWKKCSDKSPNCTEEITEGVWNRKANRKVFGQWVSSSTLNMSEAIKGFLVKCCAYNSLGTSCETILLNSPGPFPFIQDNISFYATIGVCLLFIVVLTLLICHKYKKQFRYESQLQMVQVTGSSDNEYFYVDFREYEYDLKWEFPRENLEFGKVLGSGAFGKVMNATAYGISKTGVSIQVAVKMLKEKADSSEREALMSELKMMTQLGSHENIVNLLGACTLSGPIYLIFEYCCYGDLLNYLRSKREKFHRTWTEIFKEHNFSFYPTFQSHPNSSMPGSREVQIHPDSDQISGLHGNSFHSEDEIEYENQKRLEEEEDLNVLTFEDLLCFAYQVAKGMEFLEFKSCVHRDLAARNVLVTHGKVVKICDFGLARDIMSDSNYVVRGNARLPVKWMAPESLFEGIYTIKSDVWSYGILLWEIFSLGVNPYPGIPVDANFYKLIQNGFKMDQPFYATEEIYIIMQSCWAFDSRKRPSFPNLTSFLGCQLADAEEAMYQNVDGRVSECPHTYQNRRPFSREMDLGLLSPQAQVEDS
Briefly: TR-FRET kinase activity assay, FLT3. It counts as biochemical. Particulars: ATP at Km, 60 minutes. Put shortly: (§1)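 Enzyme + labelled peptide + cpd premixed; ATP at per-enzyme Km starts rxn. 60 min RT, HEPES pH 7.5/MgCl2/EGTA/Brij 35/DTT buffer. Stop 12.5 mM EDTA, Eu phospho-Ab 30 min dark, TR-FRET read → IC50.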
On the technique in general: TR-FRET usually uses a lanthanide donor and a delayed reading to cut background.

Experiment [2] addresses T2, AXL (Homo sapiens, UniProt P30530).
T2 sequence (P30530 26-894): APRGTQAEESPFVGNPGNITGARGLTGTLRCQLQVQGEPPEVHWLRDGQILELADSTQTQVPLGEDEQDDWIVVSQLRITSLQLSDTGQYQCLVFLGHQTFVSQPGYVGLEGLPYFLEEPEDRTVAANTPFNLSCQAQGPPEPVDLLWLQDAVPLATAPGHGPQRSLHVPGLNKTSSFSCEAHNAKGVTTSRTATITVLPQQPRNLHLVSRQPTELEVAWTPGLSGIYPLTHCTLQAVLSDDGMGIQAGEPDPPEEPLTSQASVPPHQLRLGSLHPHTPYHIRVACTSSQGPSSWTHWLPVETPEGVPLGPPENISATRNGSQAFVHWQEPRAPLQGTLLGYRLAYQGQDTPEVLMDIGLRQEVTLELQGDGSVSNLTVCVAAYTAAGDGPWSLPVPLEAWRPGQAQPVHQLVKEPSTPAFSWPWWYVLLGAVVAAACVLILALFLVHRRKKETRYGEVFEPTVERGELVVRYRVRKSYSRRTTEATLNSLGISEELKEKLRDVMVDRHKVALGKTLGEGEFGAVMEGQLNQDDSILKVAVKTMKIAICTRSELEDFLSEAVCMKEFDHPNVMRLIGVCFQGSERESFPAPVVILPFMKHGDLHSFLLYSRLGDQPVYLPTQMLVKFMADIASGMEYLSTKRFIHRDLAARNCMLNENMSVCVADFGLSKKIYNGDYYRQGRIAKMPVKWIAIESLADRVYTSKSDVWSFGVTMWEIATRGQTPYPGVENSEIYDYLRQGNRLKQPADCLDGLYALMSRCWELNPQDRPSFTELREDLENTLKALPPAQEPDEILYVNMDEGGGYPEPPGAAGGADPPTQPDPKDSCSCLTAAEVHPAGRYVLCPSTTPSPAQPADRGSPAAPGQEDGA
Briefly: TR-FRET kinase activity assay, AXL. Format: biochemical. Particulars: ATP at Km, 60 minutes. The gist of the method: as §1

As a reminder, the IC50 is the concentration needed to halve the response being measured. Low values mean greater potency in that assay, high ones weaker potency in that assay. `COC[C@H](C)Nc1ncc2c(-c3cnn(C4CCN(C)C4=O)c3)cc([C@H]3CC[C@H](O)CC3)n2n1` (stereo partly drawn) [Compound 394, 3-(4-(7-((trans)-4-hydroxycyclohexyl)-2-(((S)-1-methoxypropan-2-yl)amino)pyrrolo[2,1-f][1,2,4]triazin-5-yl)-1H-pyrazol-1-yl)-1-methylpyrrolidin-2-one]: the IC50 was 0.1 to 1 µM in experiment [1] and at most 0.1 µM in experiment [2].
Regarding `COC[C@H](C)Nc1ncc2c(-c3cnn(CC4CC(=O)N(C)C4)c3)cc([C@H]3CC[C@H](O)CC3)n2n1` (stereo partly drawn) [Compound 395], the half-maximal inhibitory concentration (IC50) in experiment [1] was 0.1 to 1 µM; in experiment [2], at most 0.1 µM.
`COC[C@H](C)Nc1ncc2c(-c3cnn(C4COC4)c3)cc(C3CCC(=O)CC3)n2n1` [Compound 406]: the IC50 in experiment [1] and in experiment [2] was 0.1 to 1 µM each time.
With `COC[C@H](C)Nc1ncc2c(-c3cnn(C4(C(=O)NC(C)C)CC4)c3)cc([C@H]3CC[C@H](O)CC3)n2n1` [Compound 415], the IC50 in experiment [1] was 1 to 10 µM; in experiment [2], at most 0.1 µM.
As for `CN1CCN(Cc2ccc(-c3cc(C4CCC(O)CC4)n4nc(NC5CCC5(C)C)ncc34)cc2)CC1` (mixture of isomers) [Compound 121], the IC50 in experiment [1] and in experiment [2] was 0.1 to 1 µM throughout.
As to `COCC(C)Nc1ncc2c(C3CCN(c4ccnc(C)n4)C3)cc(C3CCC(O)CC3)n2n1` (stereo not drawn) [Compound 374], the IC50 was 1 to 10 µM in experiment [1] and at most 0.1 µM in experiment [2].
For `COC[C@H](C)Nc1ncc2c(-c3cnn(C4(C(=O)N5CCOCC5)CC4)c3)cc([C@H]3CC[C@H](O)CC3)n2n1` [Compound 414] the same measures were 1 to 10 µM and at most 0.1 µM.
For `CC1(Nc2ncc3c(-c4cnn(C5COC5)c4)cc(C4CCC(O)CC4)n3n2)COC1` (stereo not drawn) [Compound 399] the same measures were 0.1 to 1 µM and at most 0.1 µM.
For `COC[C@H](C)Nc1ncc2c(-c3ccnc(C)c3)cc([C@H]3CC[C@](C)(O)CC3)n2n1` [Compound 391] the same measures were 0.1 to 1 µM and at most 0.1 µM.
As to `C[C@H](CN(C)C)Nc1ncc2c(-c3cnn(C4COC4)c3)cc([C@H]3CC[C@H](O)CC3)n2n1` [Compound 388], the IC50 in experiment [1] and in experiment [2] was 1 to 10 µM throughout.
Turning to `COC[C@H](C)Nc1ncc2c(-c3cnn([C@H]4CCC(C(=O)OC(C)(C)C)C4)c3)cc([C@H]3CC[C@H](O)CC3)n2n1` (stereo partly drawn) [Compound 365], the IC50 was 0.1 to 1 µM in experiment [1] and at most 0.1 µM in experiment [2].
On to `COC[C@H](C)Nc1ncc2c(-c3ccnc(O[C@@H]4CCN(C)C4)c3)cc([C@H]3CC[C@H](O)CC3)n2n1` [Compound 402], for which the IC50 was 0.1 to 1 µM in experiment [1] and at most 0.1 µM in experiment [2].

The values above are taken from US11040981B2, “Pyrrolotriazine compounds and methods of inhibiting TAM kinases” (Syros Pharmaceuticals, Inc., priority 2017, dated 2021).
